Earlier results in patent US5605915A, “Acetylenes disubstituted with a 5 substituted tetrahydronaphthyl group and with an aryl or heteroaryl group having retinoid-like biological activity” (Allergan, priority 1996, dated 1997).

Tested on: ornithine decarboxylase (ODC)
Conditions: literature statement

SMILES | effect on ODC activity
CCCCCCCCCCCCCC(=O)O[C@@H]1[C@@H](C)[C@@]2(O)[C@@H](C=C(CO)C[C@]3(O)C(=O)C(C)=C[C@@H]23)[C@@H]2C(C)(C)[C@]12OC(C)=O [12-0-tetradecanoylphorbol-13-acetate] | induces ODC activity
CC1=C(/C=C/C(C)=C/C=C/C(C)=C/C(=O)O)C(C)(C)CCC1 [Retinoic acid] | inhibits this induction of ODC activity by TPA
